According to PubChem BioAssay (NCI):
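A five-concentration, 48-hour dose response in 96-well plates underlies each endpoint, interpolated linearly between surrounding concentrations. The concentration for 50% growth inhibition is given as GI50. At the TGI there is no net growth.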

Experiments:
Assay in all cases: NCI anticancer screen, dose series, 48 h
786-0 renal = tested on: 786-0 renal
A498 renal = tested on: A498 renal
A549 NSCLC = tested on: A549 NSCLC
ACHN renal = tested on: ACHN renal
BT-549 breast = tested on: BT-549 breast
CAKI-1 renal = tested on: CAKI-1 renal
COLO 205 colon = tested on: COLO 205 colon
DU-145 prostate = tested on: DU-145 prostate
EKVX NSCLC = tested on: EKVX NSCLC
HCC-2998 colon = tested on: HCC-2998 colon
HCT-116 colon = tested on: HCT-116 colon
HCT-15 colon = tested on: HCT-15 colon
HL-60(TB) leukemia = tested on: HL-60(TB) leukemia
HOP-62 NSCLC = tested on: HOP-62 NSCLC
HOP-92 NSCLC = tested on: HOP-92 NSCLC
HS 578T breast = tested on: HS 578T breast
HT29 colon = tested on: HT29 colon
IGROV1 ovarian = tested on: IGROV1 ovarian
K-562 leukemia = tested on: K-562 leukemia
KM12 colon = tested on: KM12 colon
LOX IMVI melanoma = tested on: LOX IMVI melanoma
M14 melanoma = tested on: M14 melanoma
MALME-3M melanoma = tested on: MALME-3M melanoma
MCF7 breast = tested on: MCF7 breast
MDA-MB-231 breast = tested on: MDA-MB-231 breast
MDA-MB-435 = tested on: MDA-MB-435
MOLT-4 leukemia = tested on: MOLT-4 leukemia
NCI-H226 lung = tested on: NCI-H226 lung
NCI-H23 lung = tested on: NCI-H23 lung
NCI-H460 lung = tested on: NCI-H460 lung
NCI-H522 lung = tested on: NCI-H522 lung
NCI/ADR-RES ovarian = tested on: NCI/ADR-RES ovarian
OVCAR-3 ovarian = tested on: OVCAR-3 ovarian
OVCAR-4 ovarian = tested on: OVCAR-4 ovarian
OVCAR-5 ovarian = tested on: OVCAR-5 ovarian
OVCAR-8 ovarian = tested on: OVCAR-8 ovarian
PC-3 prostate = tested on: PC-3 prostate
RPMI-8226 leukemia = tested on: RPMI-8226 leukemia
RXF 393 renal = tested on: RXF 393 renal
SF-268 CNS = tested on: SF-268 CNS
SF-295 CNS = tested on: SF-295 CNS
SF-539 CNS = tested on: SF-539 CNS
SK-MEL-2 melanoma = tested on: SK-MEL-2 melanoma
SK-MEL-28 melanoma = tested on: SK-MEL-28 melanoma
SK-MEL-5 melanoma = tested on: SK-MEL-5 melanoma
SK-OV-3 ovarian = tested on: SK-OV-3 ovarian
SN12C renal = tested on: SN12C renal
SNB-19 CNS = tested on: SNB-19 CNS
SNB-75 CNS = tested on: SNB-75 CNS
SR leukemia = tested on: SR leukemia
SW-620 colon = tested on: SW-620 colon
T-47D breast = tested on: T-47D breast
TK-10 renal = tested on: TK-10 renal
U251 CNS = tested on: U251 CNS
UACC-257 melanoma = tested on: UACC-257 melanoma
UACC-62 melanoma = tested on: UACC-62 melanoma
UO-31 renal = tested on: UO-31 renal

Compound: CC(NC(=O)Cc1ccc(C(F)(F)P(=O)(OCc2ccc([N+](=O)[O-])o2)N(C)CCCCCl)cc1)c1ccc(OCC2CCCCC2)c(C(N)=O)c1 (centres undefined)
- GI50 (786-0 renal): 1.77 µM
- TGI (786-0 renal): 3.97 µM
- GI50 (A498 renal): 1.17 µM
- TGI (A498 renal): 24 µM
- GI50 (A549 NSCLC): 14.5 µM
- TGI (A549 NSCLC): 58.7 µM
- GI50 (ACHN renal): 8.77 µM
- TGI (ACHN renal): 39.3 µM
- GI50 (BT-549 breast): 5.27 µM
- TGI (BT-549 breast): 13.5 µM
- GI50 (CAKI-1 renal): 15.8 µM
- TGI (CAKI-1 renal): 48.4 µM
- GI50 (COLO 205 colon): 3.94 µM
- TGI (COLO 205 colon): 11.2 µM
- GI50 (DU-145 prostate): 6.2 µM
- TGI (DU-145 prostate): 16.7 µM
- GI50 (EKVX NSCLC): 4.92 µM
- TGI (EKVX NSCLC): 16.7 µM
- GI50 (HCC-2998 colon): 3.25 µM
- TGI (HCC-2998 colon): 9.11 µM
- GI50 (HCT-116 colon): 1.93 µM
- TGI (HCT-116 colon): 4.11 µM
- GI50 (HCT-15 colon): 4.85 µM
- TGI (HCT-15 colon): 16.1 µM
- GI50 (HL-60(TB) leukemia): 1.89 µM
- TGI (HL-60(TB) leukemia): 4.72 µM
- GI50 (HOP-62 NSCLC): 4.08 µM
- TGI (HOP-62 NSCLC): 12.1 µM
- GI50 (HOP-92 NSCLC): 16.5 µM
- TGI (HOP-92 NSCLC): 37.2 µM
- GI50 (HS 578T breast): 8.21 µM
- TGI (HS 578T breast): 38.4 µM
- GI50 (HT29 colon): 5.8 µM
- TGI (HT29 colon): 21.2 µM
- GI50 (IGROV1 ovarian): 9.93 µM
- TGI (IGROV1 ovarian): 25.5 µM
- GI50 (K-562 leukemia): 4.5 µM
- TGI (K-562 leukemia): 17.9 µM
- GI50 (KM12 colon): 3.32 µM
- TGI (KM12 colon): 10.2 µM
- GI50 (LOX IMVI melanoma): 2.06 µM
- TGI (LOX IMVI melanoma): 5.87 µM
- GI50 (M14 melanoma): 0.398 µM
- TGI (M14 melanoma): 1.99 µM
- GI50 (MALME-3M melanoma): 4.62 µM
- TGI (MALME-3M melanoma): 16.3 µM
- GI50 (MCF7 breast): 6.53 µM
- TGI (MCF7 breast): 41.4 µM
- GI50 (MDA-MB-231 breast): 15.7 µM
- TGI (MDA-MB-231 breast): 35.3 µM
- GI50 (MDA-MB-435): 2.69 µM
- TGI (MDA-MB-435): 6.73 µM
- GI50 (MOLT-4 leukemia): 2.19 µM
- TGI (MOLT-4 leukemia): 7.06 µM
- GI50 (NCI-H226 lung): 5.52 µM
- TGI (NCI-H226 lung): 15.1 µM
- GI50 (NCI-H23 lung): 4.11 µM
- TGI (NCI-H23 lung): 15.3 µM
- GI50 (NCI-H460 lung): 8.26 µM
- TGI (NCI-H460 lung): 26.2 µM
- GI50 (NCI-H522 lung): 3.86 µM
- TGI (NCI-H522 lung): 10.2 µM
- GI50 (NCI/ADR-RES ovarian): 6.51 µM
- TGI (NCI/ADR-RES ovarian): > 93.4 µM
- GI50 (OVCAR-3 ovarian): 2.31 µM
- TGI (OVCAR-3 ovarian): 9.82 µM
- GI50 (OVCAR-4 ovarian): 3.33 µM
- TGI (OVCAR-4 ovarian): 12 µM
- GI50 (OVCAR-5 ovarian): 15.6 µM
- TGI (OVCAR-5 ovarian): 33.1 µM
- GI50 (OVCAR-8 ovarian): 12.1 µM
- TGI (OVCAR-8 ovarian): 41.9 µM
- GI50 (PC-3 prostate): 6.91 µM
- TGI (PC-3 prostate): > 34.8 µM
- GI50 (RPMI-8226 leukemia): 1.14 µM
- TGI (RPMI-8226 leukemia): 3.86 µM
- GI50 (RXF 393 renal): 4.36 µM
- TGI (RXF 393 renal): 9.97 µM
- GI50 (SF-268 CNS): 4.8 µM
- TGI (SF-268 CNS): 15.5 µM
- GI50 (SF-295 CNS): 4.52 µM
- TGI (SF-295 CNS): 12.3 µM
- GI50 (SF-539 CNS): 6.33 µM
- TGI (SF-539 CNS): 13.4 µM
- GI50 (SK-MEL-2 melanoma): 6.48 µM
- TGI (SK-MEL-2 melanoma): > 48.5 µM
- GI50 (SK-MEL-28 melanoma): 12.2 µM
- TGI (SK-MEL-28 melanoma): 25.9 µM
- GI50 (SK-MEL-5 melanoma): 6.77 µM
- TGI (SK-MEL-5 melanoma): 15.5 µM
- GI50 (SK-OV-3 ovarian): 19.3 µM
- TGI (SK-OV-3 ovarian): 43.5 µM
- GI50 (SN12C renal): 5.35 µM
- TGI (SN12C renal): 10.9 µM
- GI50 (SNB-19 CNS): 8.97 µM
- TGI (SNB-19 CNS): 29.7 µM
- GI50 (SNB-75 CNS): 4.7 µM
- TGI (SNB-75 CNS): 9.97 µM
- GI50 (SR leukemia): 1.76 µM
- TGI (SR leukemia): 5.03 µM
- GI50 (SW-620 colon): 6.82 µM
- TGI (SW-620 colon): 15.8 µM
- GI50 (T-47D breast): 4.33 µM
- TGI (T-47D breast): 15 µM
- GI50 (TK-10 renal): 8.01 µM
- TGI (TK-10 renal): 22.2 µM
- GI50 (U251 CNS): 3.33 µM
- TGI (U251 CNS): 10.9 µM
- GI50 (UACC-257 melanoma): 17.5 µM
- TGI (UACC-257 melanoma): 34.7 µM
- GI50 (UACC-62 melanoma): 4.97 µM
- TGI (UACC-62 melanoma): 10.2 µM
- GI50 (UO-31 renal): 7.74 µM
- TGI (UO-31 renal): 21.9 µM
